This passage reports germinating seeds and germinated seeds results from patent US20100240537A1, “Substituted 6-(alkylbenzylamino)purine derivatives for use as cytokinin receptor antagonists and preparations containing these derivatives” (priority 2007, published 2010).

The test has as its system wild-type Arabidopsis seeds. As to the kind of experiment: Germination of Arabidopsis seeds. It counts as in vivo. As for the experimental part: Early germination of wild-type Arabidopsis seeds cultivated on MS medium containing indicated concentrations of compound 8 after replacement from dark to white light (16 h light/8 hours dark).
Subsequent testing confirmed positive effect of the compound 8 on germination. After sowing and pretreatment in dark at 4° C., seeds were transferred to light and ambient temperature. After 30 hours more than 60% of seeds sown on medium containing 1 nM compound 8 were germinating, which was twice as much as in the case of control sown on compound 8 free medium. The number of germinating seeds was further enhanced with higher concentration of compound 8 and 80% of seeds were germinated when 10 nM compound 8 was present in the medium (FIG. 6).

With `Cc1cccc(CNc2ncnc3nc[nH]c23)c1O` [Compound 8, 6-(2-hydroxy-3-methylbenzylamino)purine], under “1 nM in medium, after 30 hours in light”, the germinating seeds entry is listed as “more than 60%”. This compound also gave a germinated seeds (10 nM in medium) of 80%.
